This test relates to Candida krusoides ATCC 7345 enzyme capable of decomposing ethyl carbamate (partially purified crude enzyme of Example 5). Kind of test: Km of the ethyl carbamate-decomposing enzyme (ammonia formation, nitroprusside method). The class given is biochemical. The settings on record: pH 4, 0.2M citrate buffer; substrate not given, taken as ethyl carbamate. As for the experimental part:
The activity of decomposing ethyl carbamate in the culture broth or its processed matter was determined colorimetrically by the nitroprusside method on ammonia produced by the reaction at 30° C. for 30 minutes of the mixture of a volume of a suspension of the cells in sterilized deionized water collected by centrifugation of the culture which had been diluted appropriately, […] The amount of enzyme to produce one micromole of ammonia per unit time (one minute) is expressed as 1 unit (1U). Candida krusoides ATCC 7345 was cultivated in the same manner as described in Example 1 to give 2 l of a culture broth having an activity of 0.007 U/ml for decomposing ethyl carbamate. The cells were collected from the culture broth by centrifugation, washed with 0.05M phosphate buffer (pH 7.2) twice, suspended in a solution containing 1 mM of EDTA and 1 mM of dithiothreitol, broken down by treating with a cell mill containing glass beads having 0.1-0.2 mm in diameter and were treated at 4500 rpm for 20 minutes The treated product was centrifuged and to the supernatant was added ammonium sulfate so that the concentration comes to 90%. […]

From patent US5000966A, “Quality improvement of alcoholic liquors by enzymatic decomposing of ethyl carbamate” (Takeda Chemical Industries, Ltd., priority 1987, dated 1991) come the findings set out here.

For the compound `CCOC(N)=O` [ethyl carbamate], the Michaelis-Menten constant (Km) is 65 mM.

One may read the Km as the concentration of substrate that gives half-maximal velocity.
